Data: paper PMC3130785, “Small Compound 6-O-Angeloylplenolin Induces Mitotic Arrest and Exhibits Therapeutic Potentials in Multiple Myeloma” (PLoS ONE, 2011)

Legend:
[1] = test system: human HL-60 leukemia cells; set-up: method as in PMID 18077129; details: mitochondrial/caspase and NF-κB pathway; cited from earlier work
MM.1S cells = assay: MTT assay, 6-OAP combined with Dox, Dex or BOR; assay type: cell-based, human; details: 48 h, 6-OAP 5 µM, in particular Dox and BOR
Experimental: (§1) U266, RPMI 8226 cells (1×10^4), primary CD138+ cells, PBMCs (5×10^4), and BMSCs (1×10^4) were cultured in 96-well dishes and incubated without or with 6-OAP at indicated concentration for 48 h. MM.1S and MM.1R cells (2×10^4) were seeded into 96-well dishes and pre-cultured for 24 h, then treated with 6-OAP for 48 h. Cell proliferation was determined by MTT assay. Cell viability was estimated by trypan blue dye exclusion.
(§2) Figure 4 6-OAP enhances cytotoxicity of Dox, Dex and BOR to MM cells. (A through C) MM.1S cells were treated for 48 h with Dox (A), Dex (B) or BOR (C) in the presence or absence of 6-OAP at 5 µM. MTT assay was used to test the proliferation of MM.1S cells. (D) MM.1R cells were treated for 48 h with Dex in the presence or absence of 6-OAP at 7.5 µM. MTT assay was used to test the proliferation of MM.1R cells. *p<.001,** p<.05. (E) MM.1S cells were cultured with control media (con), 6-OAP (O, 5 µM), BOR (B, 3 nM), or 6-OAP (5 µM) plus BOR (3 nM) (OB) for indicated time points. Cells were then lysed and subjected to Western blotting using indicated antibodies. CF, cleavage fragment.

pAkt = assay: Western blotting, IGF-I stimulation; assay type: cell-based, human; details: MM.1S; 6-OAP 7.5 µM for 12 h; IGF-I 50 ng/ml
Experimental: (§3) Cell pellets were lysed in RIPA buffer containing 50 mM Tris pH 8.0, 150 mM NaCl, 0.1% SDS, 0.5% deoxycholate, 1% NP-40, 1 mM DTT, 1 mM NaF, 1 mM sodium vanadate, and protease inhibitors cocktail (Sigma). For immunoprecipitations, cells were lysed on ice for 15 minutes in RIPA buffer. Lysates were centrifuged. The supernatant was incubated with indicated antibodies overnight, after which protein A/G Plus beads (Santa Cruz Biotechnology) were added and incubated for 3 h. The beads were washed 4 times in RIPA buffer. Then the beads were resuspended in 1× sample buffer and boiled for 3 min. Protein extracts were quantitated and loaded on 8% to 12% sodium dodecyl sulfate polyacrylamide gel, electrophoresed, and transferred to a nitrocellulose membrane (Whatman). The membrane was incubated with primary antibody, washed, and incubated with horseradish peroxidase (HRP)–conjugated secondary antibody (Pierce). Detection was performed by using a chemiluminescent western detection kit (Cell Signaling). […]
(§4) Figure 5 6-OAP overcomes the protective effects of IL-6, IGF-I and BMSCs on MM cells. […] Cell proliferation was assessed by MTT assay. […] Cell proliferation was assessed by MTT assay. *p<.01,** p<.05. […]

PDK-1 = assay: Western blotting, IGF-I stimulation; assay type: cell-based, human; details: MM.1S; IGF-I 50 ng/ml
Experimental: as §3, §4

MM.1R cells = assay: MTT assay, Dex with or without 6-OAP; assay type: cell-based, human; details: 48 h, 6-OAP 7.5 µM
Experimental: as §1, §2

[2] = test system: U266, RPMI 8226, MM.1S, and MM.1R cells; assay: Trypan blue exclusion assay; assay type: cell-based, human; details: 6-OAP 5 to 7.5 µM
Experimental: as §1

CC=C(C)C(=O)OC1C2C(CC(C)C3C=CC(=O)C31C)OC(=O)C2C (stereo not drawn) [6-OAP, 6-O-angeloylplenolin]
apoptosis [1]: induce apoptosis
effect on cytotoxicity of Dox, Dex, BOR (MM.1S cells): significantly enhanced cytotoxicity
IGF-I-induced pAkt expression (pAkt): inhibited
phosphorylation of PDK-1 (PDK-1): not affected
effect on inhibitory effect of Dex (MM.1R cells): drastically potentiated inhibitory effect
cell growth (trypan blue exclusion) [2]: markedly inhibited cell growth
